Data published in patent US4073913A, “N^2 -arylsulfonyl-L-argininamides and the pharmaceutically acceptable salts thereof” (Mitsubishi Chemical Industries Limited, priority 1974, dated 1978).
Non-standard residues stand in square brackets, D forms with d. Residues, ends and D or L forms follow the SMILES beside them. ξ: configuration not given here. *: point of attachment. Dansyl = CN(C)c1cccc2c(S(=O)(=O)*)cccc12; ξPip = O=C(O)C1CCCCN1

Each compound was assayed against T1, thrombin (Bos taurus, UniProt P00735) (assay: fibrinogen coagulation time (concentration required to prolong the coagulation time by a factor of two)). Conditions: bovine fibrinogen, thrombin 5 units/ml, borate saline buffer pH 7.4, 25° C; control 50-55 seconds prolonged to 100-110 seconds.
T1 construct: clotting of bovine fibrinogen
Format: biochemical
Protocol: The measurement of the fibrinogen coagulation time was conducted as follows:
Immediately after mixing, the reaction mixture was transferred from the ice bath to a bath maintained at 25° C. Coagulation times were taken as the period between the time of transference to the 25° C bath and the time of the first appearance of fibrin threads. […] The term "concentration required to prolong the coagulation time by a factor of two" is the concentration of an active ingredient required to prolong the normal coagulation time 50-55 seconds to 100-110 seconds.

| SMILES | IC (2-fold clotting time) |
| --- | --- |
| COc1cc2ccc(S(=O)(=O)N[C@@H](CCCNC(=N)N)C(=O)N3CCCC[C@H]3C(=O)O)cc2cc1OC [compound 221] | 15 µM |
| CCCCCCN(CC(=O)O)C(=O)[C@H](CCCNC(=N)N)NS(=O)(=O)c1ccc2cc(OC)c(OC)cc2c1 [compound 9] | 1.5 µM |
| COCCN(CC(=O)O)C(=O)[C@H](CCCNC(=N)N)NS(=O)(=O)c1cccc2ccc(C)cc12 [compound 151] | 20 µM |
| CCOC(=O)CN(CCOC)C(=O)[C@H](CCCNC(=N)N)NS(=O)(=O)c1ccc2cc(OC)c(OC)cc2c1 [compound 14] | 1.5 µM |
| COc1ccc2ccc(S(=O)(=O)N[C@@H](CCCNC(=N)N)C(=O)N(CCSC)CC(=O)O)cc2c1 [compound 67] | 1 µM |
| COc1cc2ccc(S(=O)(=O)N[C@@H](CCCNC(=N)N)C(=O)N(CCC(=O)O)CCc3ccccc3)cc2cc1OC [compound 56] | 50 µM |
| COCCN(CC(=O)O)C(=O)[C@H](CCCNC(=N)N)NS(=O)(=O)c1cc(OC)c2cc(OC)ccc2c1 [compound 23] | 4 µM |
| CCOc1cc2ccc(S(=O)(=O)N[C@@H](CCCNC(=N)N)C(=O)N(CCOC)CC(=O)O)cc2cc1OCC [compound 27] | 15 µM |
| COCCCN(CC(=O)O)C(=O)[C@H](CCCNC(=N)N)NS(=O)(=O)c1ccc2cc(OC)c(OC)cc2c1 [compound 19] | 5 µM |
| COc1ccc2ccc(S(=O)(=O)N[C@@H](CCCNC(=N)N)C(=O)N(CC[S+](C)[O-])CC(=O)O)cc2c1 (stereo partly shown) [compound 222] | 6.5 µM |
| COc1ccc2ccc(S(=O)(=O)N[C@@H](CCCNC(=N)N)C(=O)N(CC(=O)O)CC3CCCO3)cc2c1 (stereo partly shown) [compound 164] | 0.15 µM |
| COc1cc2ccc(S(=O)(=O)N[C@@H](CCCNC(=N)N)C(=O)N(CCc3ccccc3)C(C)C(=O)O)cc2cc1OC (stereo partly shown) [compound 122] | 1.5 µM |
| COc1cc2ccc(S(=O)(=O)N[C@@H](CCCNC(=N)N)C(=O)N(CCc3ccccc3)CC(=O)O)cc2cc1OC [compound 54] | 3 µM |
| N=C(N)NCCC[C@H](NS(=O)(=O)c1ccc2c(c1)CCCC2)C(=O)N(CC(=O)O)Cc1ccccc1 [compound 133] | 30 µM |
| COc1ccc2ccc(S(=O)(=O)N[C@@H](CCCNC(=N)N)C(=O)N(C)C(Cc3ccccc3)C(=O)O)cc2c1 (stereo partly shown) [compound 211] | 2.5 µM |
| COc1ccc2ccc(S(=O)(=O)N[C@@H](CCCNC(=N)N)C(=O)N3CC[S+]([O-])CC3C(=O)O)cc2c1 (stereo partly shown) [compound 204] | 4.5 µM |
| CCCCN(CC(=O)O)C(=O)[C@H](CCCNC(=N)N)NS(=O)(=O)c1cccc2c(N(C)C)cccc12 [compound 153] | 4 µM |
| CCCCN(CC(=O)O)C(=O)[C@H](CCCNC(=N)N)NS(=O)(=O)c1cccc2c1CCCC2 [compound 130] | 20 µM |
| COc1cc2ccc(S(=O)(=O)N[C@@H](CCCNC(=N)N)C(=O)N3Cc4ccccc4CC3C(=O)O)cc2cc1OC (stereo partly shown) [compound 194] | 2 µM |
| Cc1ccc2ccc(S(=O)(=O)N[C@@H](CCCNC(=N)N)C(=O)N(CC(=O)O)CC3CCCCC3)cc2c1 [compound 146] | 14 µM |
| COCCN(CC(=O)O)C(=O)[C@H](CCCNC(=N)N)NS(=O)(=O)c1cccc2c1CCCC2 [compound 132] | 10 µM |

| SMILES | IC (2-fold clotting time) |
| --- | --- |
| COc1ccc2cc(S(=O)(=O)N[C@@H](CCCNC(=N)N)C(=O)N(CC(=O)O)Cc3ccccc3)cc(OC)c2c1 [compound 58] | 6.5 µM |
| Cc1ccc2ccc(S(=O)(=O)N[C@@H](CCCNC(=N)N)C(=O)N(CC(=O)O)CC3CCCO3)cc2c1 (stereo partly shown) [compound 160] | 0.25 µM |
| CC(C)C1CCN(C(=O)[C@H](CCCNC(=N)N)NS(=O)(=O)c2ccc3ccccc3c2)C(C(=O)O)C1 (stereo partly shown) [compound 181] | 0.5 µM |
| COc1cc2ccc(S(=O)(=O)N[C@@H](CCCNC(=N)N)C(=O)N3CCCCC3C(=O)O)cc2cc1OC (stereo partly shown) [compound 71] | 5 µM |
| CCOCCN(CCC(=O)O)C(=O)[C@H](CCCNC(=N)N)NS(=O)(=O)c1ccc2cc(OC)c(OC)cc2c1 [compound 21] | 4 µM |
| Cc1ccc2ccc(S(=O)(=O)N[C@@H](CCCNC(=N)N)C(=O)N(CC(=O)O)CC3CCCO3)cc2c1 (stereo partly shown) [compound 161] | 0.2 µM |
| CN(C)c1cccc2c(S(=O)(=O)N[C@@H](CCCNC(=N)N)C(=O)N3CCCCC3C(=O)O)cccc12 (stereo partly shown) [compound 183] (Dansyl-Arg-[ξPip]-OH) | 0.35 µM |
| COc1cc2ccc(S(=O)(=O)N[C@@H](CCCNC(=N)N)C(=O)N(CC(=O)O)CC(C)C)cc2cc1OC [compound 5] | 2 µM |
| COc1cc2ccc(S(=O)(=O)N[C@@H](CCCNC(=N)N)C(=O)N3CCOCC3C(=O)O)cc2cc1OC (stereo partly shown) [compound 191] | 5 µM |
| COCCN(CC(=O)O)C(=O)[C@H](CCCNC(=N)N)NS(=O)(=O)c1ccc2cc(OC)c(OC)cc2c1 [compound 13] | 0.5 µM |
| COc1ccc2ccc(S(=O)(=O)N[C@@H](CCCNC(=N)N)C(=O)N3CCCCCC3C(=O)O)cc2c1 (stereo partly shown) [compound 205] | 2.5 µM |
| CCCC(C(=O)O)N(CC(=O)O)C(=O)[C@H](CCCNC(=N)N)NS(=O)(=O)c1ccc2cc(OC)c(OC)cc2c1 (stereo partly shown) [compound 207] | 55 µM |
| CCCCN(CC(=O)O)C(=O)[C@H](CCCNC(=N)N)NS(=O)(=O)c1ccc2cc(OC)ccc2c1 [compound 31] | 0.5 µM |
| CCCCN(CC(=O)O)C(=O)[C@H](CCCNC(=N)N)NS(=O)(=O)c1ccc2ccc(OC)cc2c1 [compound 39] | 0.5 µM |
| COc1ccc2cc(S(=O)(=O)N[C@@H](CCCNC(=N)N)C(=O)N(CCCC(=O)O)Cc3ccccc3)ccc2c1 [compound 60] | 50 µM |
| COc1cc2ccc(S(=O)(=O)N[C@@H](CCCNC(=N)N)C(=O)N3Cc4ccccc4C3C(=O)O)cc2cc1OC (stereo partly shown) [compound 195] | 1.5 µM |
| COc1cc2ccc(S(=O)(=O)N[C@@H](CCCNC(=N)N)C(=O)N3CCCC[C@@H]3C(=O)O)cc2cc1OC [compound 220] | 2 µM |
| COCCN(CC(=O)O)C(=O)[C@H](CCCNC(=N)N)NS(=O)(=O)c1ccc2ccc(C)cc2c1 [compound 144] | 0.2 µM |
| CCSCCN(CC(=O)O)C(=O)[C@H](CCCNC(=N)N)NS(=O)(=O)c1ccc2cc(OC)c(OC)cc2c1 [compound 69] | 5 µM |
| COc1cc2ccc(S(=O)(=O)N[C@@H](CCCNC(=N)N)C(=O)N(CC(=O)O)CC(C)OC)cc2cc1OC (stereo partly shown) [compound 212] | 6.5 µM |
| CC1CCN(C(=O)[C@H](CCCNC(=N)N)NS(=O)(=O)c2cccc3ccccc23)C(C(=O)O)C1 (stereo partly shown) [compound 179] | 1 µM |

| SMILES | IC (2-fold clotting time) |
| --- | --- |
| COc1cc2ccc(S(=O)(=O)N[C@@H](CCCNC(=N)N)C(=O)N(CC(=O)O)C3CCCCC3)cc2cc1OC [compound 111] | 5 µM |
| COc1cc2ccc(S(=O)(=O)N[C@@H](CCCNC(=N)N)C(=O)N(C)C(Cc3ccccc3)C(=O)O)cc2cc1OC (stereo partly shown) [compound 209] | 2 µM |
| COc1cc2ccc(S(=O)(=O)N[C@@H](CCCNC(=N)N)C(=O)N(CCC(=O)O)Cc3ccccc3)cc2cc1OC [compound 52] | 10 µM |
| COCCN(CC(=O)O)C(=O)[C@H](CCCNC(=N)N)NS(=O)(=O)c1cccc2c(OC)cccc12 [compound 43] | 2.5 µM |
| COCCN(CC(=O)Oc1cccc(C)c1)C(=O)[C@H](CCCNC(=N)N)NS(=O)(=O)c1ccc2cc(OC)c(OC)cc2c1 [compound 202] | 20 µM |
| COCCN(CC(=O)O)C(=O)[C@H](CCCNC(=N)N)NS(=O)(=O)c1ccc2ccc(OC)cc2c1 [compound 35] | 0.5 µM |
| CCCCCCCCOC(=O)CN(CCOC)C(=O)[C@H](CCCNC(=N)N)NS(=O)(=O)c1ccc2cc(OC)c(OC)cc2c1 [compound 200] | 2 µM |
| Cc1ccc2ccc(S(=O)(=O)N[C@@H](CCCNC(=N)N)C(=O)N3CCC(C)CC3C(=O)O)cc2c1 (stereo partly shown) [compound 173] | 0.2 µM |
| COCCN(CC(=O)O)C(=O)[C@H](CCCNC(=N)N)NS(=O)(=O)c1cccc2cc(C)c(C)cc12 [compound 152] | 10 µM |
| CCCCCN(C(=O)[C@H](CCCNC(=N)N)NS(=O)(=O)c1ccc2cc(OC)c(OC)cc2c1)C(C)C(=O)O (stereo partly shown) [compound 118] | 2 µM |
| COCCN(C(=O)[C@H](CCCNC(=N)N)NS(=O)(=O)c1ccc2cc(OC)c(OC)cc2c1)C(C)C(=O)O (stereo partly shown) [compound 129] | 5 µM |
| CCOC(=O)CCN(CC(=O)O)C(=O)[C@H](CCCNC(=N)N)NS(=O)(=O)c1ccc2cc(OC)c(OC)cc2c1 [compound 196] | 6.5 µM |
| CCCN(CC(=O)O)C(=O)[C@H](CCCNC(=N)N)NS(=O)(=O)c1ccc2cc(OC)c(OC)cc2c1 [compound 1] | 8 µM |
| CCCCN(CC(=O)O)C(=O)[C@H](CCCNC(=N)N)NS(=O)(=O)c1ccc2ccc(C)cc2c1 [compound 143] | 0.3 µM |
| CCCCN(CC(=O)O)C(=O)[C@H](CCCNC(=N)N)NS(=O)(=O)c1cc(OC)c2cc(OC)ccc2c1 [compound 25] | 2 µM |
| COc1ccc2cc(S(=O)(=O)N[C@@H](CCCNC(=N)N)C(=O)N(CCC(=O)O)Cc3ccccc3)ccc2c1 [compound 62] | 15 µM |
| COc1ccc2cc(S(=O)(=O)N[C@@H](CCCNC(=N)N)C(=O)N(CC3CCCCC3)C(C)C(=O)O)cc(OC)c2c1 (stereo partly shown) [compound 126] | 4.5 µM |
| CCCC(NC(=O)[C@H](CCCNC(=N)N)NS(=O)(=O)c1ccc2cc(OC)c(OC)cc2c1)C(=O)O (stereo partly shown) [compound 214] | 15 µM |
| COc1cc2ccc(S(=O)(=O)N[C@@H](CCCNC(=N)N)C(=O)N(Cc3ccccc3)C(C)C(=O)O)cc2cc1OC (stereo partly shown) [compound 120] | 2.5 µM |
